# Measurements: patent US20220186188A1, “Method for Obtaining Pancreatic Progenitor Cells and Pancreatic Islet Beta Cells By Means of Differentiation of Human Pluripotent Stem Cells” (Asia Regenerative Medicine, Ltd., priority 2019, published 2022)
# Key:
# Type in all cases: cell-based
# [1] = test system: pancreatic progenitor cells and pancreatic islet β cells differentiated from human embryonic stem cells; assay: Immunofluorescence detection of PDX1 and PDX1/INS proteins (human embryonic stem cells)
# Experimental: (§1) a pancreatic progenitor cell medium was prepared, the medium in step 1) was replaced with the pancreatic progenitor cell medium, and the cells were cultured in a carbon dioxide incubator at 37 degrees Celsius for 5 days, during which the medium was replaced every day, wherein the composition of the pancreatic progenitor cell medium was: with an MCDB131 medium as a basic medium, and the following components at the working concentrations were further included: 0.5% of bovine serum albumin (BSA), 1.5 g/L of sodium bicarbonate, 1×glutamine (GlutaMAX), 10 mM glucose, 0.25 M vitamin C, 1×insulin-transferrin-selenium-ethanolamine additive (ITS-X), 50 ng/ml of fibroblast growth factor 7 (KGF), 0.5 μM SANT1 (with smo as an inhibitor target), 100 nM retinoic acid (TTNPB), 500 nM phorbol 12,13-dibutyrate (PDBu), 2 μM ALK inhibitor (K02288), and 2 μM WNT signaling pathway inhibitor XAV-939 (not added in a control group), with the concentrations all being final concentrations.
# (§2) b. pancreatic islet β cell medium 2 was prepared, the pancreatic islet β cell medium 1 in above-mentioned step a was replaced with the pancreatic islet β cell medium 2, and the cells were cultured in a carbon dioxide incubator at 37 degrees Celsius for 5 days, during which the medium was replaced every day, wherein the composition of the pancreatic islet β cell medium 1 was: with an MCDB131 medium as a basic medium, and the following components at the working concentrations were further included: 20 mM glucose, 2% of bovine serum albumin (BSA), 1.5 g/L of sodium bicarbonate, 1×glutamine (GlutaMAX), 0.05 mM vitamin C, 1×insulin-transferrin-selenium-ethanolamine additive (ITS-X), 2 μM ALK inhibitor (K02288), 1 μM triiodothyronine (T3), 10 μM YO-01027 (Notch signaling pathway inhibitor), and 10 μM zinc sulfate, with the concentrations all being final concentrations; and the composition of the pancreatic islet β cell medium 2 was: with an MCDB131 medium as a basic medium, and the following components at the working concentrations were further included: 20 mM glucose, 2% of bovine serum albumin (BSA), 1.5 g/L of sodium bicarbonate, 1×glutamine (GlutaMAX), 0.05 mM vitamin C, 1×insulin-transferrin-selenium-ethanolamine additive (ITS-X), 1 μM triiodothyronine (T3), 10 μM Repsox (ALK5 inhibitor), 10 μM vitamin E, 10 μg/ml of heparin sodium, 2 μM R428 (Axl inhibitor), 10 μM zinc sulfate, and 10 mM N-acetyl-L-cysteine (N-cys), with the concentrations all being final concentrations.
# Cells in a culture plate were washed three times with a phosphate buffered saline (PBS), 3 minutes each time; the cells were fixed with 4% paraformaldehyde at room temperature for 20 minutes, and washed three times with PBS, 3 minutes each time; a blocking solution was prepared in advance (by adding Triton at a final concentration of 0.3% to 9 ml of DPBS, adding donkey serum at a final concentration of 10%, and uniformly mixing); the above-prepared blocking solution was used for blocking and perforation at room temperature for 2 hours; the blocking solution was soaked up, a working concentration of primary antibody prepared with the blocking solution was then added, and the product was left to stand at room temperature for 30 minutes and then placed in a refrigerator at 4° C. overnight; the next day, the product was washed three times with PBS, 3 minutes each time; a fluorescent secondary antibody of donkey serum was added and incubation was carried out at room temperature for 2 hours; in the same way, the product was washed three times with PBS, 3 minutes each time; the product was incubated with a working solution of the nuclear dye DAPI at room temperature for 10 minutes, and washed three times with PBS, 3 minutes each time; then a fluorescence microscope was used for observation and data were collected. […]
# [2] = test system: pancreatic progenitor cells and pancreatic islet β cells differentiated from human induced pluripotent stem cells; assay: Real-time fluorescence quantitative PCR of PDX1, NKX6-1 and INS mRNA (human induced pluripotent stem cells); details: qPCR
# Experimental: as §1, with “factor” for “factor 7”, “concentrations. […]” for “concentrations.”
# [3] = test system: pancreatic progenitor cells and pancreatic islet β cells differentiated from human embryonic stem cells; assay: Real-time fluorescence quantitative PCR of PDX1, NKX6-1 and INS mRNA (human embryonic stem cells); details: qPCR
# Experimental: as §1, §2
# Cells cultured in a 24-well plate were collected, and washed twice with 500 μl of DPBS at first, then covered with 200 μl of chymotrypsin-trypsin (Trypsin), and placed at 37° C. for 5 minutes of digestion. Whether the cells float in pieces was observed, and the digestion was terminated using 500 μl of DMEM/F12 medium, then the product was centrifuged at 1000 rpm for 3 minutes, the supernatant was removed, and cell pellets were collected and added to a new RNase-free centrifuge tube. […]
# [4] = 2 μM inhibitor in pancreatic progenitor cell stage
# [5] = 2 μM inhibitor added in pancreatic progenitor cell stage
# [6] = 2 μM inhibitor in pancreatic progenitor cell stage, GAPDH reference
smiles,measurement,setting,value
Oc1nc(-c2ccc(C(F)(F)F)cc2)nc2c1CSCC2 [XAV-939],number of insulin INS-positive and PDX1 co-stained pancreatic islet β cells in the mature pancreatic islet β cell stage,"[1]; 2 μM inhibitor added in pancreatic progenitor cell stage, immunofluorescence",significantly increased
same,PDX1-positive pancreatic progenitor cells (immunofluorescence),[1]; [4],significantly increased
same,cell growth (total cell number by DAPI),[1]; [4],did not affect the cell growth
same,transcription level of the insulin gene INS in the mature pancreatic islet β cell stage,[2]; [5],greatly increased
same,relative expression of mRNA of NKX6-1 in pancreatic progenitor cells,[2]; [6],significantly increased
same,relative expression of mRNA of PDX1 in pancreatic progenitor cells,[2]; [6],significantly increased
same,transcription level of the insulin gene INS in the mature pancreatic islet β cell stage,[3]; [5],greatly increased
same,relative expression of mRNA of NKX6-1 in pancreatic progenitor cells,[3]; [6],significantly increased
same,relative expression of mRNA of PDX1 in pancreatic progenitor cells,[3]; [6],significantly increased
